#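 Interpolation was linear, between the two tested concentrations surrounding the appropriate level; five concentrations were tested over 48 hours in 96-well plates. Here, GI50 denotes the concentration required for 50% inhibition of growth. Definition used: TGI = concentration required for complete inhibition of growth.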
# Assays:
# Assay in all cases: DTP human tumour cell line panel, 48 h
# HCT-15 colon = tested on: HCT-15 colon
# K-562 leukemia = tested on: K-562 leukemia
# TK-10 renal = tested on: TK-10 renal
# CAKI-1 renal = tested on: CAKI-1 renal
# HS 578T breast = tested on: HS 578T breast
# HCT-116 colon = tested on: HCT-116 colon
# SK-MEL-28 melanoma = tested on: SK-MEL-28 melanoma
# HCC-2998 colon = tested on: HCC-2998 colon
# NCI/ADR-RES ovarian = tested on: NCI/ADR-RES ovarian
# HOP-92 NSCLC = tested on: HOP-92 NSCLC
# SK-MEL-5 melanoma = tested on: SK-MEL-5 melanoma
# HT29 colon = tested on: HT29 colon
# MALME-3M melanoma = tested on: MALME-3M melanoma
# T-47D breast = tested on: T-47D breast
# U251 CNS = tested on: U251 CNS
# OVCAR-4 ovarian = tested on: OVCAR-4 ovarian
# MCF7 breast = tested on: MCF7 breast
# NCI-H522 lung = tested on: NCI-H522 lung
# SF-268 CNS = tested on: SF-268 CNS
# 786-0 renal = tested on: 786-0 renal
# NCI-H226 lung = tested on: NCI-H226 lung
# SK-OV-3 ovarian = tested on: SK-OV-3 ovarian
# RPMI-8226 leukemia = tested on: RPMI-8226 leukemia
# UACC-62 melanoma = tested on: UACC-62 melanoma
# SNB-75 CNS = tested on: SNB-75 CNS
# NCI-H460 lung = tested on: NCI-H460 lung
# M14 melanoma = tested on: M14 melanoma
# A498 renal = tested on: A498 renal
# UO-31 renal = tested on: UO-31 renal
structure (smiles),measurement,setting,value
C=C(C)[C@@H]1CC[C@]2(C)[C@H](CC[C@@H]3[C@@H]([C@@](C)(O)CCC=C(C)C)CC[C@]32C)[C@@]1(C)CCC(=O)N1CCN(C)CC1,GI50,HCT-15 colon,6.04 µM
same,TGI,HCT-15 colon,18.1 µM
same,GI50,K-562 leukemia,4.26 µM
same,TGI,K-562 leukemia,24.1 µM
same,GI50,TK-10 renal,17.7 µM
same,TGI,TK-10 renal,32.2 µM
same,GI50,CAKI-1 renal,12.4 µM
same,TGI,CAKI-1 renal,24.9 µM
same,GI50,HS 578T breast,13.1 µM
same,TGI,HS 578T breast,36.5 µM
same,GI50,HCT-116 colon,4.43 µM
same,TGI,HCT-116 colon,16.9 µM
same,GI50,SK-MEL-28 melanoma,12.9 µM
same,TGI,SK-MEL-28 melanoma,25.8 µM
same,GI50,HCC-2998 colon,13.5 µM
same,TGI,HCC-2998 colon,26.3 µM
same,GI50,NCI/ADR-RES ovarian,12.1 µM
same,TGI,NCI/ADR-RES ovarian,25 µM
same,GI50,HOP-92 NSCLC,6.4 µM
same,TGI,HOP-92 NSCLC,20.7 µM
same,GI50,SK-MEL-5 melanoma,6.97 µM
same,TGI,SK-MEL-5 melanoma,19.6 µM
same,GI50,HT29 colon,4.14 µM
same,TGI,HT29 colon,16.2 µM
same,GI50,MALME-3M melanoma,10.7 µM
same,TGI,MALME-3M melanoma,23.6 µM
same,GI50,T-47D breast,4.72 µM
same,TGI,T-47D breast,19.6 µM
same,GI50,U251 CNS,10.1 µM
same,TGI,U251 CNS,22 µM
same,GI50,OVCAR-4 ovarian,10.1 µM
same,TGI,OVCAR-4 ovarian,23.4 µM
same,GI50,MCF7 breast,7 µM
same,TGI,MCF7 breast,21.1 µM
same,GI50,NCI-H522 lung,13.4 µM
same,TGI,NCI-H522 lung,28.2 µM
same,GI50,SF-268 CNS,13.1 µM
same,TGI,SF-268 CNS,30.1 µM
same,GI50,786-0 renal,10.3 µM
same,TGI,786-0 renal,23.8 µM
same,GI50,NCI-H226 lung,12.9 µM
same,TGI,NCI-H226 lung,31.7 µM
same,GI50,SK-OV-3 ovarian,12.9 µM
same,TGI,SK-OV-3 ovarian,26.4 µM
same,GI50,RPMI-8226 leukemia,5.99 µM
same,TGI,RPMI-8226 leukemia,28.6 µM
same,GI50,UACC-62 melanoma,11.2 µM
same,TGI,UACC-62 melanoma,24.1 µM
same,GI50,SNB-75 CNS,11.3 µM
same,TGI,SNB-75 CNS,25 µM
same,GI50,NCI-H460 lung,16.9 µM
same,TGI,NCI-H460 lung,32.9 µM
same,GI50,M14 melanoma,10.1 µM
same,TGI,M14 melanoma,24.2 µM
same,GI50,A498 renal,13.2 µM
same,TGI,A498 renal,26.6 µM
same,GI50,UO-31 renal,11.3 µM
same,TGI,UO-31 renal,23.3 µM

# — PubChem BioAssay (NCI)
